According to PubChem BioAssay (NCI):
Values joined by “and” are separate entries in the source; they are usually repeats but may differ in a detail not shown here. Equal values may be shown once.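 48-hour exposure; five concentrations; linearly interpolated endpoints. The concentration for 50% growth inhibition is given as GI50. TGI denotes the concentration required for complete inhibition of growth.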

Legend:
Assay in all cases: DTP human tumour cell line panel, 48 h
PC-3 prostate = tested on: PC-3 prostate
MDA-MB-231 breast = tested on: MDA-MB-231 breast
UO-31 renal = tested on: UO-31 renal
MDA-MB-435 = tested on: MDA-MB-435
U251 CNS = tested on: U251 CNS
OVCAR-3 ovarian = tested on: OVCAR-3 ovarian
HS 578T breast = tested on: HS 578T breast
K-562 leukemia = tested on: K-562 leukemia
M14 melanoma = tested on: M14 melanoma
CAKI-1 renal = tested on: CAKI-1 renal

SMILES | TGI (PC-3 prostate) [µM] | TGI (MDA-MB-231 breast) | GI50 (UO-31 renal) [µM] | TGI (UO-31 renal) | TGI (MDA-MB-435) [µM] | TGI (U251 CNS) | GI50 (OVCAR-3 ovarian) [µM] | TGI (OVCAR-3 ovarian) | TGI (HS 578T breast) [µM] | GI50 (K-562 leukemia) | TGI (K-562 leukemia) | GI50 (M14 melanoma) [µM] | TGI (M14 melanoma) | GI50 (PC-3 prostate) [µM] | GI50 (MDA-MB-231 breast) | GI50 (CAKI-1 renal) [µM] | TGI (CAKI-1 renal) [µM] | GI50 (MDA-MB-435) [µM] | GI50 (U251 CNS) [µM] | GI50 (HS 578T breast) [µM]
C=C(C)C(O)CCC1(C)C=Cc2c(c(C)cc3c2[nH]c2ccccc23)O1 (stereo unspecified) | 19.3 | 11.4 µM | 12 | 25 µM and 27.3 µM | 21.3 | 11.1 µM and 17.6 µM | 10.3 | 24 µM and 22 µM | 13.5 | 2.78 µM | 24.6 µM and 7.13 µM | 6.63 | 10.9 µM and 19.7 µM |  |  |  |  |  |  | 
COC(=O)c1ccc(-c2nc3cc(Cl)c(Cl)cc3nc2C#N)cc1 | > 100 | > 100 µM | > 100 | > 100 µM | > 100 | > 100 µM | > 100 | > 100 µM |  | > 100 µM | > 100 µM | > 100 | > 100 µM | > 100 | > 100 µM | > 100 | > 100 | > 100 | 42 | 
CCOC(=O)C12CCCC1(O)N(NC(=O)OC(C)(C)C)C(C)=C2C(=O)OC (stereo unspecified) |  |  |  | > 100 µM |  | > 100 µM |  | > 100 µM |  |  | > 100 µM |  | > 100 µM |  |  |  | > 100 |  |  | 
CCc1ccccc1NC(=O)C1=C(C)NC(C)=C(C(=O)Nc2ccccc2CC)C1c1ccccc1Cl |  |  |  | > 100 µM |  | > 100 µM |  | > 100 µM |  |  | > 100 µM |  | > 100 µM |  |  |  | > 100 |  |  | 
O=C(O)CCCSC(=O)Nc1ccc(N=Nc2ccccc2)cc1 |  |  |  | > 100 µM |  | > 100 µM |  | > 100 µM |  |  | > 100 µM |  | > 100 µM |  |  |  | > 100 |  |  | 
CCOC(=O)c1nn2c(nc1=O)sc1ccc3ccccc3c12 |  |  |  | > 100 µM |  | > 100 µM |  | > 100 µM |  |  | > 100 µM |  | > 100 µM |  |  |  | > 100 |  |  | 
COC1=C(N)C(=O)c2nc(C)ccc2C1=O |  |  |  | 4 µM |  | 5.69 µM |  | 3.65 µM |  |  | > 22.5 µM |  | 3.33 µM |  |  |  | 22.4 |  |  | 
N.N.N.N.[Co+3].[N-]=[N+]=[N-].[N-]=[N+]=[N-].[N-]=[N+]=[N-] |  |  | 29.2 | > 100 µM |  | > 100 µM | > 100 | > 100 µM |  | > 100 µM | > 100 µM | > 100 | > 100 µM |  |  |  |  |  | > 100 | 
CCN(Cc1cc(Nc2nc(C)cn3c(-c4cn[nH]c4)cnc23)sn1)C(C)(C)CO | 9.66 | 4.35 µM | 0.0428 | 10.1 µM | 1.31 | 2.21 µM | 0.0481 | 2.68 µM | 0.0855 |  |  | 0.0421 | 2.84 µM | 0.0219 | 0.0508 µM | 0.0358 | 11.5 | 0.0826 | 0.0289 | 0.0227
O=C1CC(O)CC(=O)C1=C(O)CCCCCCCCCCc1ccccc1 (stereo unspecified) |  |  |  | > 100 µM |  | > 100 µM |  | > 100 µM |  |  | > 100 µM |  | > 100 µM |  |  |  | > 100 |  |  | 
CC[C@@H]1c2c(C#N)ncn2-c2cnc(Nc3ccc(C(=O)NC4CCN(C5CCN(CC6CC6)CC5)CC4)cc3OC)nc2N1C1CCCC1 | 2.08 | 1.31 µM and 0.219 µM | 1.36 | 2.69 µM |  | 1.48 µM | 0.0401 | 1.63 µM | 1.78 | 0.0337 µM | 0.308 µM | 0.0316 | 1.35 µM | 0.0438 | 0.0631 µM and 0.0382 µM | 1.62 | 3.88 |  | 0.042 | 0.069
C[C@]12C[C@H](CCCCCCNCCOC(=O)NCCCc3ccc(N(CCCl)CCCl)cc3)C3=C4CCC(=O)C=C4CCC3C1CC[C@@H]2O (stereo partly specified) |  | 3.44 µM | 1.27 | 2.98 µM | 6.53 |  |  |  | 4.61 | 0.308 µM | 1.07 µM | 2.9 | 7.29 µM | 1.17 | 2.01 µM | 1.55 | 3.3 | 2.38 |  | 1.66
N.N.N.N.N.NC(=O)c1nn[n-]n1.[Cl-].[Co+3] |  |  | > 100 | > 100 µM |  | > 100 µM | > 100 | > 100 µM |  | > 100 µM | > 100 µM | > 100 | > 100 µM |  |  | > 100 | > 100 |  | > 100 | 
COC(=O)CC1C[C@H](C#N)N(C(=O)c2ccccc2)C[C@@H]1CC[N+](=O)[O-] (stereo partly specified) |  |  |  | > 100 µM |  | > 100 µM |  | > 100 µM |  |  | > 100 µM |  | > 100 µM |  |  |  |  |  |  | 
CN(O)C(=O)SCC(NC(=O)CCC(N)C(=O)O)C(=O)NCC(=O)O (stereo unspecified) |  |  | > 2000 | > 2000 µM |  |  | > 2000 | > 2000 µM |  | > 2 µM and 812 µM | > 2000 µM | > 2000 | > 2000 µM |  |  | > 2000 | > 2000 |  | > 2000 | 
O=C(NCCCCNc1cccccc1=O)OCc1ccccc1 |  |  |  | > 100 µM |  | > 100 µM |  | > 100 µM |  |  | > 100 µM |  | > 100 µM |  |  |  | > 100 |  |  | 
CCN(CC)c1c(C(=O)/C=C/c2ccc(Cl)cc2)c(-c2ccccc2)nn(C)c1=O |  |  |  | 3.12 µM |  | 3.18 µM |  | 4.35 µM |  |  | 7.27 µM |  | 4.01 µM |  |  |  | 21.5 |  |  | 
CN1CCC2(CC1)ONC1=NCCN12 | 66.5 | > 100 µM | 45.3 | > 100 µM | > 100 | > 100 µM |  |  |  | 37.7 µM | > 100 µM | 47.9 | > 100 µM | 26 | 46 µM | 30.6 | 90 | 80.6 | 29.4 | 
C=C1C(=O)O[C@@H]2C[C@@H](C)[C@@H]3C=CC(=O)[C@@]3(C)[C@@H](O)[C@H]12 | 7.22 | 7.35 µM |  | 3.65 µM | 3.39 | 2.99 µM |  | 3.72 µM |  |  | 8.34 µM |  | 5.63 µM |  |  |  | 1.2 |  |  | 
C=CCN=c1sc2c(n1NC(=O)c1cc3ccc1CCc1ccc(cc1)CC3)C(=O)c1ccccc1C2=O | 8.81 | 6.68 µM | 0.496 | 2.09 µM | 0.363 | 4.28 µM | 0.328 | 1.43 µM | 6.93 |  |  | 1.63 | 3.3 µM | 1.49 | 1.27 µM | 1.18 | 2.86 | 0.194 | 1.6 | 2.04
